IC50 and Ki data for ten molecules are collected here from US11787780B2 (CORCEPT THERAPEUTICS INCORPORATED, priority 2020, dated 2023).

Assay [1] concerns the target glucocorticoid receptor (GR) recombinant ligand binding domain (LBD) (Homo sapiens (Human), UniProt P04150). Description: GR binding fluorescence polarisation (FP) assay. The settings on record: displacement of fluorescently tagged ligand. The protocol: Binding of test compounds to the glucocorticoid receptor (GR) is determined using a fluorescence polarisation (FP) assay utilising a recombinant ligand binding domain (LBD) of GR. The test compounds are assessed by their ability to displace a fluorescently tagged ligand and detection of the resulting decrease in fluorescence polarisation.
In general terms: Polarisation of emitted light reports the rotation of a fluorescent probe.

Assay [2] deals with induction of TAT by dexamethasone in HepG2 cells. Briefly: Hep G2 TAT assay (inhibition of dexamethasone-induced TAT). The class given is cell-based, human. The settings on record: challenge of 100 nM dexamethasone, IC50 converted to Ki by Cheng and Prusoff equation.

Sequence of glucocorticoid receptor (GR) recombinant ligand binding domain (LBD) (P04150 524-758): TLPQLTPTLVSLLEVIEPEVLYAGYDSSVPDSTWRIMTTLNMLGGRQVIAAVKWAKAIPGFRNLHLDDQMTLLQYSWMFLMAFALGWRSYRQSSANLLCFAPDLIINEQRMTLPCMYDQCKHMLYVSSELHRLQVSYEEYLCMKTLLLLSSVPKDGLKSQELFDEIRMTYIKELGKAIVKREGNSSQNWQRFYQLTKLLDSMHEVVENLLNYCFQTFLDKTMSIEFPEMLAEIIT

Consider `Cc1cc2c(cnn2-c2cc(C)c(=O)n(C)c2)cc1C1(Cc2ccccc2)CCN(S(=O)(=O)c2cnn(C)n2)C1` (centres unmarked) [Example 237, 5-(5-(3-benzyl-1-((2-methyl-2H-1,2,3-triazol-4-yl)sulfonyl)pyrrolidin-3-yl)-6-methyl-1H-indazol-1-yl)-1,3-dimethylpyridin-2(1H)-one], for which the 50% inhibitory concentration (IC50) – broadly, the concentration that gives 50% inhibition – in assay [1] was 4.8 nM. The affinity in assay [2] corresponds to a Ki of 22 nM.
In the same order, the values of `Cc1cc2c(cnn2-c2ccc(F)c(C#N)c2)cc1C1(Cc2ccccc2)CCN(S(=O)(=O)c2cnn(C)n2)C1` (centres unmarked) [Example 239, 5-(5-(3-benzyl-1-((2-methyl-2H-1,2,3-triazol-4-yl)sulfonyl)pyrrolidin-3-yl)-6-methyl-1H-indazol-1-yl)-2-fluorobenzonitrile] are 28 nM and 36 nM.
Taken in the same sequence, the figures for `Cc1cc2c(cnn2-c2ccc(F)c(CO)c2)cc1C1(Cc2ccccc2)CCN(S(=O)(=O)c2cnn(C)n2)C1` (centres unmarked) [Example 242, (5-(5-(3-benzyl-1-((2-methyl-2H-1,2,3-triazol-4-yl)sulfonyl)pyrrolidin-3-yl)-6-methyl-1H-indazol-1-yl)-2-fluorophenyl)methanol] were 18 nM and 44 nM.
Taken in the same sequence, the figures for `COc1cc2c(cnn2-c2ccc(F)c(C#N)c2)cc1C1(Cc2ccccc2)CCN(S(=O)(=O)c2cnn(C)n2)C1` (centres unmarked) [Example 243, 5-(5-(3-benzyl-1-((2-methyl-2H-1,2,3-triazol-4-yl)sulfonyl)pyrrolidin-3-yl)-6-methoxy-1H-indazol-1-yl)-2-fluorobenzonitrile] were 65 nM and 38 nM.
Turning to `Cc1cc2c(cnn2-c2cc(F)c(=O)n(C)c2)cc1C1(Cc2ccccc2)CCN(S(=O)(=O)c2cnn(C)n2)C1` (centres unmarked) [Example 246, 5-(5-(3-benzyl-1-((2-methyl-2H-1,2,3-triazol-4-yl)sulfonyl)pyrrolidin-3-yl)-6-methyl-1H-indazol-1-yl)-3-fluoro-1-methylpyridin-2(1H)-one], the IC50 in assay [1] was 6.3 nM. Moreover, the Ki (commonly a dissociation constant, usually derived from enzyme kinetics or from competition with a known ligand) in assay [2] worked out at 49 nM.
Taken in the same sequence, the figures for `Cc1cc2c(cnn2-c2ccc(=O)n(C(F)F)c2)cc1C1(Cc2ccccc2)CCN(S(=O)(=O)c2cnn(C)n2)C1` (centres unmarked) [Example 247, 5-(5-(3-benzyl-1-((2-methyl-2H-1,2,3-triazol-4-yl)sulfonyl)pyrrolidin-3-yl)-6-methyl-1H-indazol-1-yl)-1-(difluoromethyl)pyridin-2(1H)-one] were 55 nM and 240 nM.
In the same order, the values of `Cc1cc2c(cnn2-c2cc(Cl)c(=O)n(C)c2)cc1C1(Cc2ccccc2)CCN(S(=O)(=O)c2cnn(C)n2)C1` (centres unmarked) [Example 248, 5-(5-(3-benzyl-1-((2-methyl-2H-1,2,3-triazol-4-yl)sulfonyl)pyrrolidin-3-yl)-6-methyl-1H-indazol-1-yl)-3-chloro-1-methylpyridin-2(1H)-one] are 55 nM and 260 nM.
Taken in the same sequence, the figures for `Cc1cc2c(cnn2-c2cnn(C)c2)cc1C1(Cc2ccccc2)CCN(S(=O)(=O)c2cnn(C)n2)C1` (centres unmarked) [Example 249, 5-(3-benzyl-1-((2-methyl-2H-1,2,3-triazol-4-yl)sulfonyl)pyrrolidin-3-yl)-6-methyl-1-(1-methyl-1H-pyrazol-4-yl)-1H-indazole] were 4.8 nM and 39 nM.
Take `[2H]C([2H])([2H])n1cc(-n2ncc3cc(C4(Cc5ccccc5)CCN(S(=O)(=O)c5cnn(C)n5)C4)c(C)cc32)cn1` (centres unmarked) [Example 250, 5-(3-benzyl-1-((2-methyl-2H-1,2,3-triazol-4-yl)sulfonyl)pyrrolidin-3-yl)-6-methyl-1-(1-(methyl-d3)-1H-pyrazol-4-yl)-1H-indazole]: the IC50 in assay [1] was found to be 4.1 nM. Besides, the Ki in assay [2] amounted to 26 nM.
In the same order, the values of `COc1nn(C)cc1-n1ncc2cc(C3(Cc4ccccc4)CCN(S(=O)(=O)c4cnn(C)n4)C3)c(C)cc21` (centres unmarked) [Example 251, 5-(3-benzyl-1-((2-methyl-2H-1,2,3-triazol-4-yl)sulfonyl)pyrrolidin-3-yl)-1-(3-methoxy-1-methyl-1H-pyrazol-4-yl)-6-methyl-1H-indazole] are 27 nM and 180 nM.
